Assay results published in patent publication US20160045505A1, “COMPOUNDS AND COMPOSITIONS FOR THE TREATMENT OF PARASITIC DISEASES” (NOVARTIS AG, priority 2013, published 2016).
Like-named read-outs stand apart in the source and are kept apart here.

Experiments:
[1] = test system: Leishmania donovani axenic amastigote parasites; test: Leishmania donovani axenic amastigote proliferation assay (Cell TiterGlo luminescence, 2 day incubation); format: cell-based; settings: Leishmania donovani, L. donovani axenic amastigotes; read-out: L. donovani amastigotes EC50
[2] = test system: L. donovani HU3 strain in mouse peritoneal macrophages; test: Assay for proliferation of Leishmania parasites in infected mouse peritoneal macrophages (SybrGreen staining, high-content imaging, 5 days); format: cell-based, Leishmania donovani; settings: Leishmania donovani, Peritoneal macrophage, L. donovani in mouse peritoneal macrophages; read-out: L. donovani Macrophage EC50
[3] = test system: Trypanosoma brucei Lister 427 strain, bloodstream form; test: Assay for proliferation of kinetoplastid parasite Trypanosoma brucei (Cell Titer Glo, 48 hours); format: cell-based; settings: Trypanosoma brucei, T. brucei Lister 427 bloodstream form; read-out: T. brucei EC50
Method in brief: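 Bloodstream-form T. brucei Lister 427 in HMI-9 medium was exposed to compound (DMSO vehicle) for 48 hours at 37° C, 5% CO2. Parasite growth was read as ATP by CellTiter-Glo luminescence, with EC50 calculated from percent inhibition.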

[4] = test system: Trypanosoma cruzi amastigotes (Tulahuen strain expressing Lac-Z) cultured in 3T3 fibroblast cells; test: microbe, parasite or virus in culture; format: cell-based; settings: Trypanosoma cruzi, TULAHUEN, Fibroblast
[5] = T. cruzi amastigotes in 3T3 fibroblast cells, read-out: T cruzi EC50

SMILES | EC50 [1] [µM] | EC50 [2] [µM] | EC50 [3] [µM] | EC50 [4, 5] [µM] | EC50 ([4]; read-out: T cruzi EC50 (μM)) [µM]
Cc1nc(C)c(C(=O)Nc2ccc(F)c(-c3cn4cc(C#CCCO)cnc4n3)c2)o1 [Compound 543, N-(4-fluoro-3-(6-(4-hydroxybut-1-yn-1-yl)imidazo[1,2-a]pyrimidin-2-yl)phenyl)-2,4-dimethyloxazole-5-carboxamide] | 0.212 | 0.759 | 0.134 | 0.882 | –
Cc1nc(C)c(C(=O)Nc2ccc(F)c(-c3cn4cc(C#CCCN5CCOCC5)cnc4n3)c2)o1 [Compound 544, N-(4-fluoro-3-(6-(4-morpholinobut-1-yn-1-yl)imidazo[1,2-a]pyrimidin-2-yl)phenyl)-2,4-dimethyloxazole-5-carboxamide] | 4.04 | 19.3 | > 50 | 4.01 | –
Cc1nc(C)c(C(=O)Nc2ccc(F)c(-c3cn4cc(C#CCCN5CCCC(O)C5)cnc4n3)c2)o1 (centres unmarked) [Compound 545] | 3.9 | 2.13 | 3.25 | 7.18 | –
Cc1nc(C)c(C(=O)Nc2ccc(F)c(-c3cn4cc(C#CCCN5CCN(C)CC5)cnc4n3)c2)o1 [Compound 546] | 5.66 | 30.2 | 3.18 | 3.85 | –
COCCOc1cnc2nc(-c3cc(NC(=O)c4oc(C)nc4C)ccc3F)cn2c1 [Compound 547, N-(4-fluoro-3-(6-(2-methoxyethoxy)imidazo[1,2-a]pyrimidin-2-yl)phenyl)-2,4-dimethyloxazole-5-carboxamide] | 0.856 | 4.53 | 0.607 | 1.36 | –
COC(=O)c1cnc2nc(-c3cc(NC(=O)c4oc(C)nc4C)ccc3F)cn2c1 [Compound 548, methyl 2-(5-(2,4-dimethyloxazole-5-carboxamido)-2-fluorophenyl)imidazo[1,2-a]pyrimidine-6-carboxylate] | 0.651 | 1.07 | 0.518 | 0.539 | –
Cc1nc(C)c(C(=O)Nc2ccc(F)c(-c3cn4cc([Si](C)(C)C)cnc4n3)c2)o1 [Compound 549, N-(4-fluoro-3-(6-(trimethylsilyl)imidazo[1,2-a]pyrimidin-2-yl)phenyl)-2,4-dimethyloxazole-5-carboxamide] | 0.133 | 0.448 | 0.117 | 0.063 | –
CC(C)OC(=O)N(C)c1cnc2nc(-c3cc(NC(=O)c4ccc(Cl)o4)ccc3F)cn2c1 [Compound 550, isopropyl (2-(5-(5-chlorofuran-2-carboxamido)-2-fluorophenyl)imidazo[1,2-a]pyrimidin-6-yl)(methyl)carbamate] | 0.176 | 0.516 | 0.078 | 0.042 | –
CC(C)OC(=O)N(C)c1cnc2nc(-c3cc(N(C)C(=O)c4ccc(Cl)o4)ccc3F)cn2c1 [Compound 551, isopropyl (2-(5-(5-chloro-N-methylfuran-2-carboxamido)-2-fluorophenyl)imidazo[1,2-a]pyrimidin-6-yl)(methyl)carbamate] | 11 | 6.94 | 9.32 | 3.28 | –
Cc1nc(C)c(C(=O)Nc2ccc(F)c(-c3cn4cc(N(C)C(=O)OC(C)C)cnc4n3)c2)o1 [Compound 552] | 0.42 | 0.967 | 0.24 | 0.326 | –
Cc1nc(C)c(C(=O)N(C)c2ccc(F)c(-c3cn4cc(N(C)C(=O)OC(C)C)cnc4n3)c2)o1 [Compound 553] | 3.48 | 3.61 | 4.29 | 3.11 | –
COCN(C(=O)OC(C)C)c1cnc2nc(-c3cc(NC(=O)c4oc(C)nc4C)ccc3F)cn2c1 [Compound 554] | 0.814 | 1.85 | 0.664 | 1.51 | –
COCCN(C(=O)OC(C)C)c1cnc2nc(-c3cc(NC(=O)c4oc(C)nc4C)ccc3F)cn2c1 [Compound 555] | 3.11 | 5.47 | 1.57 | 1.32 | –
CCCC(=O)OCN(C(=O)OC(C)C)c1cnc2nc(-c3cc(NC(=O)c4oc(C)nc4C)ccc3F)cn2c1 [Compound 556] | 0.063 | 0.099 | 0.07 | 0.313 | –
CC(C)OC(=O)Nc1cnc2nc(-c3cc(NCC(=O)N4CCCC4)ccc3F)cn2c1 [Compound 560] | 9.84 | 29.7 | 5.65 | – | 12.1
CC(C)OC(=O)N(C)c1cnc2nc(-c3cc(NC(=O)c4ccco4)ccc3Cl)cn2c1 [Compound 561, isopropyl (2-(2-chloro-5-(furan-2-carboxamido)phenyl)imidazo[1,2-a]pyrimidin-6-yl)(methyl)carbamate] | 0.74 | 2.14 | 0.286 | 0.139 | –
O=C(Nc1ccc(F)c(-c2cn3cc(OCCN4CCOCC4)cnc3n2)c1)N1CCCC1 [Compound 563] | 14.2 | 8.5 | > 50 | 6.7 | –
CC(C)Nc1cnc2nc(-c3cc(NC(=O)N4CCC4)ccc3F)cn2c1 [Compound 564] | 0.212 | 0.29 | 0.056 | 0.204 | –

SMILES | EC50 [1] [µM] | EC50 [2] [µM] | EC50 [3] [µM] | EC50 [4, 5] [µM] | EC50 ([4]; read-out: T cruzi EC50 (μM)) [µM]
O=C(Nc1ccc(Cl)c(-c2cn3cc(C4=CCNCC4)cnc3n2)c1)N1CCCC1 [Compound 570, N-(4-chloro-3-(6-(1,2,3,6-tetrahydropyridin-4-yl)imidazo[1,2-a]pyrimidin-2-yl)phenyl)pyrrolidine-1-carboxamide] | 1.82 | 13.6 | 0.248 | 1.99 | –
Cc1nc(C)c(C(=O)Nc2ccc(F)c(-c3cn4cc(-c5ccc[nH]5)cnc4n3)c2)o1 [Compound 573] | 0.155 | 0.168 | 0.107 | 0.462 | –
O=C(Nc1ccc(Cl)c(-c2cn3cc(-c4ccc(OC5CCNCC5)cc4)cnc3n2)c1)N1CCCC1 [Compound 574] | 0.744 | 0.886 | 0.46 | 0.436 | –
Nc1cnc2nc(-c3cc(NC(=O)c4ccc(F)o4)ccc3Cl)cn2c1 [Compound 577, N-(3-(6-aminoimidazo[1,2-a]pyrimidin-2-yl)-4-chlorophenyl)-5-fluorofuran-2-carboxamide] | 2.99 | > 50 | 1.35 | 2.34 | –
C=Cc1cnc2nc(-c3cc(NC(=O)c4oc(C)nc4C)ccc3F)cn2c1 [Compound 581, N-(4-fluoro-3-(6-vinylimidazo[1,2-a]pyrimidin-2-yl)phenyl)-2,4-dimethyloxazole-5-carboxamide] | 0.169 | 0.249 | 0.101 | 0.11 | –
CCNc1cnc2nc(-c3cc(NC(=O)c4oc(C)nc4C)ccc3F)cn2c1 [Compound 582, N-(3-(6-(ethylamino)imidazo[1,2-a]pyrimidin-2-yl)-4-fluorophenyl)-2,4-dimethyloxazole-5-carboxamide] | 0.585 | 0.928 | 0.476 | 0.466 | –
CN(C)C(=O)Nc1ccc(F)c(-c2cn3cc(N(C)C)cnc3n2)c1 [Compound 583, 3-(3-(6-(dimethylamino)imidazo[1,2-a]pyrimidin-2-yl)-4-fluorophenyl)-1,1-dimethylurea] | 0.869 | 1.79 | 0.139 | 0.377 | –
Cc1cccnc1-c1cnc2nc(-c3cc(N)ccc3F)cn2c1 [Compound 594, 4-fluoro-3-(6-(3-methylpyridin-2-yl)imidazo[1,2-a]pyrimidin-2-yl)aniline] | > 25 | > 32.8 | > 50 | > 19.9 | –
COC1CCC(C(=O)Nc2ccc(F)c(-c3cn4cc(C5CC5)cnc4n3)c2)CC1 (centres unmarked) [Compound 597] | 24.1 | 17.1 | 31.4 | 16 | –
O=C(Nc1ccc(F)c(-c2cn3cc(C4CC4)cnc3n2)c1)[C@H]1CC[C@@H](O)CC1 [Compound 598] | 2.77 | 10.3 | 4.36 | 2.55 | –
O=C1CCC(C(=O)Nc2ccc(F)c(-c3cn4cc(C5CC5)cnc4n3)c2)C1 (centres unmarked) [Compound 599] | 2.69 | 0.639 | 3.3 | 3.93 | –
O=C(Nc1ccc(F)c(-c2cn3cc(C4CC4)cnc3n2)c1)C1COCCO1 (centres unmarked) [Compound 600] | 1.46 | > 50 | 1.78 | 1.75 | –
CN1CCOC(C(=O)Nc2ccc(F)c(-c3cn4cc(C5CC5)cnc4n3)c2)C1 (centres unmarked) [Compound 601] | > 25 | 4.04 | > 50 | > 20 | –
CC(C)(C)OC(=O)N1CCOC(C(=O)Nc2ccc(F)c(-c3cn4cc(C5CC5)cnc4n3)c2)C1 (centres unmarked) [Compound 602] | > 25 | > 50 | > 50 | 13.6 | –
CC(C)(C)OC(=O)N1CCOCC1C(=O)Nc1ccc(F)c(-c2cn3cc(C4CC4)cnc3n2)c1 (centres unmarked) [Compound 603] | 17.8 | 12.7 | 8.17 | 5.84 | –
O=C(Nc1ccc(F)c(-c2cn3cc(C4CC4)cnc3n2)c1)N1CC(F)(F)C1 [Compound 604] | 0.022 | 0.041 | 0.051 | 0.046 | –
O=C(Nc1ccc(F)c(-c2cn3cc(C4CC4)cnc3n2)c1)N1CC[C@@H](F)C1 [Compound 605] | 0.021 | 0.059 | 0.013 | 0.016 | –
